Test results reported in patent publication US12421254B2, “KRAS modulators and uses thereof” (Quanta Therapeutics, Inc., priority 2023, dated 2025).

How the values were obtained:
[1] = target: GST-tagged KRAS-G12V (2-169) (Homo sapiens, UniProt P01116, G12V); test: Nucleotide exchange assay (NEA), SOS-mediated, HTRF, KRAS G12V; assay type: biochemical; settings: Table 4; IC50 extracted at 90 min; 80 nM SOS
Method in brief: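 GST-KRAS-G12V (2-169), 0.25 nM, pre-incubated 1 h at RT with compound, then SOS1cat (564-1049) 80 nM and GTP-DY-647P1 150 nM added in HEPES pH 7.3 buffer with MgCl2 and DTT. HTRF via anti-GST Tb cryptate read over 90 min; IC50 from 4-parameter fit at 90 min, blanked to no-SOS reactions.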

[2] = test system: phospho-ERK in SW620 (KRAS-G12V) cells; test: pERK In Cell Western (ICW) assay (Method B), SW620; assay type: cell-based
Method in brief: (§1)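 SW620 (KRAS-G12V), GP2D (KRAS-G12D) and AGS cells, seeded overnight, were exposed to compounds (½-log, 9-point) for 3 h at 37°C, then fixed and stained for phospho-ERK. Infrared imaging; pERK normalized to DRAQ5 DNA stain, expressed as percent of blank control, IC50 by 4-parameter fit.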

[3] = target: GST-tagged KRAS-G12D (2-169) (Homo sapiens, UniProt P01116, G12D); test: Nucleotide exchange assay (NEA), SOS-mediated, HTRF, KRAS G12D; assay type: biochemical; settings: Table 4; IC50 extracted at 30 min; 20 nM SOScat; read-out: NEA G12D IC50
Chain of GST-tagged KRAS-G12D (2-169) (P01116 2-169 isoform P01116-2 G12D): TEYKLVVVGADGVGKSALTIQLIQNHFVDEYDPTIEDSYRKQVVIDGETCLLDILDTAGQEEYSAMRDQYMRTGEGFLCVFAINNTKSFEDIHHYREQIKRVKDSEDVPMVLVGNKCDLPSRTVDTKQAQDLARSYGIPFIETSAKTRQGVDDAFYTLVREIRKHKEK
Method in brief: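 Compound preincubated 1 h at RT with 0.25 nM GST-KRAS-G12D (2-169) and anti-GST Tb donor, then 20 nM SOS1cat (564-1049) and 150 nM GTP-DY-647P1 added; pH 7.3 HEPES buffer with MgCl2 and DTT. HTRF monitored at RT; % inhibition versus DMSO and no-SOS blank, 4-parameter IC50 taken at 30 min.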

[4] = test system: phospho-ERK in GP2D (KRAS-G12D) cells; test: pERK In Cell Western (ICW) assay (Method B), GP2D; assay type: cell-based
Method in brief: as §1

[5] = Homo sapiens, SW-620, 3 h, Table 4

Chain of GST-tagged KRAS-G12V (2-169) (P01116 2-169 isoform P01116-2 G12V): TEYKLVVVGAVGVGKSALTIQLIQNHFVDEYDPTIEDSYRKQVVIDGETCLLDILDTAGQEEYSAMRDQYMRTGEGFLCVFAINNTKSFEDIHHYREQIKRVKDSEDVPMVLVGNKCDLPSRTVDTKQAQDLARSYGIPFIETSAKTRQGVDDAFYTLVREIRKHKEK

| SMILES | IC50 [1] [nM] | IC50 [2, 5] [nM] | IC50 [3] [nM] | IC50 ([4]; GP2d, 3 h, Table 4) [nM] | IC50 ([2]; Table 4, 3 hours) [nM] | IC50 ([4]; Table 4, 3 hours) [nM] |
| --- | --- | --- | --- | --- | --- | --- |
| CC(c1cc(Cl)nnc1N)N(C)c1nc(OC[C@@]23CCCN2C[C@H](F)C3)nc(N2CC3(CCc4sc(N)c(C#N)c43)C2)n1 (stereo partly drawn) [Compound 132, 2′-amino-1-(4-((1-(3-amino-6-chloropyridazin-4-yl)ethyl)(methyl)amino)-6-(((2R,7aS)-2-fluorotetrahydro-1H-pyrrolizin-7a(5H)-yl)methoxy)-1,3,5-triazin-2-yl)-5′,6′-dihydrospiro[azetidine-3,4′-cyclopenta[b]thiophene]-3′-carbonitrile] | < 10 | 100 to 1000 | 10 to 100 | 1000 to 20000 | – | – |
| CC1(C#N)CCCN(c2nc(OCC3(CN4CCOCC4)CC3)nc(N3CC4(CCc5sc(N)c(C#N)c54)C3)n2)C1 (stereo not shown) [Compound 57, 2-amino-1′-[4-(3-cyano-3-methyl-1-piperidyl)-6-[[1-(morpholinomethyl)cyclopropyl]methoxy]-1,3,5-triazin-2-yl]spiro[5,6-dihydrocyclopenta[b]thiophene-4,3′-azetidine]-3-carbonitrile] | 10 to 100 | 1000 to 20000 | 100 to 1000 | 1000 to 20000 | – | – |
| CC(c1cccnc1N)N(C)c1nc(OC[C@@]23CCCN2C[C@H](F)C3)nc(N2CC3(CCc4sc(N)c(C#N)c43)C2)n1 (single isomer, unassigned) [Compound 100B, 2-amino-1′-[4-[[(1*)-1-(2-amino-3-pyridyl)ethyl]-methyl-amino]-6-[[(2R,8S)-2-fluoro-1,2,3,5,6,7-hexahydropyrrolizin-8-yl]methoxy]-1,3,5-triazin-2-yl]spiro[5,6-dihydrocyclopenta[b]thiophene-4,3′-azetidine]-3-carbonitrile] | < 10 | – | 10 to 100 | – | 10 to 100 | 100 to 1000 |
| N#Cc1c(N)sc2c1C1(CN(c3nc(OCC4(CN5CCOCC5)CC4)nc(N4CCNC[C@H]4C(F)F)n3)C1)SC2 [Compound 190, (S)-2′-amino-1-(4-(2-(difluoromethyl)piperazin-1-yl)-6-((1-(morpholinomethyl)cyclopropyl)methoxy)-1,3,5-triazin-2-yl)-6′H-spiro[azetidine-3,4′-thieno[3,4-b]thiophene]-3′-carbonitrile] | 10 to 100 | 1000 to 20000 | < 10 | 100 to 1000 | – | – |
| N#CCC1(O)CCCN(c2nc(OCC3(CN4CCOCC4)CC3)nc(N3CC4(CCc5sc(N)c(C#N)c54)C3)n2)C1 (stereo not shown) [Compound 101, 2-amino-1′-[4-[3-(cyanomethyl)-3-hydroxy-1-piperidyl]-6-[[1-(morpholinomethyl)cyclopropyl]methoxy]-1,3,5-triazin-2-yl]spiro[5,6-dihydrocyclopenta[b]thiophene-4,3′-azetidine]-3-carbonitrile] | < 10 | 1000 to 20000 | 10 to 100 | 100 to 1000 | – | – |
| CC(c1cccnc1N)N(CCO)c1nc(OC[C@@]23CCCN2C[C@H](F)C3)nc(N2CC3(CCc4sc(N)c(C#N)c43)C2)n1 (single isomer, unassigned) [Compound 122A, 2-amino-1′-[4-[[(1*)-1-(2-amino-3-pyridyl)ethyl]-(2-hydroxyethyl)amino]-6-[[(2R,8S)-2-fluoro-1,2,3,5,6,7-hexahydropyrrolizin-8-yl]methoxy]-1,3,5-triazin-2-yl]spiro[5,6-dihydrocyclopenta[b]thiophene-4,3′-azetidine]-3-carbonitrile] | < 10 | 10 to 100 | < 10 | < 10 | – | – |
| CC(c1nsnc1N)N(C)c1nc(OC[C@@]23CCCN2C[C@H](F)C3)nc(N2CC3(C2)SCc2sc(N)c(C#N)c23)n1 (single isomer, unassigned) [Compound 184A, 2-amino-1′-[4-[[(1*)-1-(4-amino-1,2,5-thiadiazol-3-yl)ethyl]-methyl-amino]-6-[[(2R,8S)-2-fluoro-1,2,3,5,6,7-hexahydropyrrolizin-8-yl]methoxy]-1,3,5-triazin-2-yl]spiro[6H-thieno[2,3-c]thiophene-4,3′-azetidine]-3-carbonitrile] | < 10 | < 10 | < 10 | 10 to 100 | – | – |
| CC1(NC#N)CCCN(c2nc(OC[C@@]34CCCN3C[C@H](F)C4)nc(N3CC4(CCc5sc(N)c(C#N)c54)C3)n2)C1 (stereo partly drawn) [Compound 52, [1-[4-(2-amino-3-cyano-spiro[5,6-dihydrocyclopenta[b]thiophene-4,3′-azetidine]-1′-yl)-6-[[(2R,8S)-2-fluoro-1,2,3,5,6,7-hexahydropyrrolizin-8-yl]methoxy]-1,3,5-triazin-2-yl]-3-methyl-3-piperidyl]cyanamide] | 10 to 100 | 1000 to 20000 | 10 to 100 | 100 to 1000 | – | – |
| CC1(O)CC(F)CN(c2nc(OC[C@@]34CCCN3C[C@H](F)C4)nc(N3CC4(CCc5sc(N)c(C#N)c54)C3)n2)C1 (stereo partly drawn) [Compound 82, 2′-amino-1-(4-(5-fluoro-3-hydroxy-3-methylpiperidin-1-yl)-6-(((2R,7aS)-2-fluorotetrahydro-1H-pyrrolizin-7a(5H)-yl)methoxy)-1,3,5-triazin-2-yl)-5′,6′-dihydrospiro[azetidine-3,4′-cyclopenta[b]thiophene]-3′-carbonitrile] | < 10 | 100 to 1000 | < 10 | 10 to 100 | – | – |
| C[C@@]1(O)CCCN(c2nc(OCC3(CN4CCOCC4)CC3)nc(N3CC4(C3)SCc3sc(N)c(C#N)c34)n2)C1 [Compound 73, 2-amino-1′-[4-[(3R)-3-hydroxy-3-methyl-1-piperidyl]-6-[[1-(morpholinomethyl)cyclopropyl]methoxy]-1,3,5-triazin-2-yl]spiro[6H-thieno[2,3-c]thiophene-4,3′-azetidine]-3-carbonitrile] | < 10 | 10 to 100 | < 10 | 10 to 100 | – | – |
| N#Cc1c(N)sc2c1C1(CC2)CN(c2nc(OCC3(C#N)CC3)nc(OCC3(CN4CCOCC4)CC3)n2)C1 [Compound 38, 2-amino-1′-[4-[(1-cyanocyclopropyl)methoxy]-6-[[1-(morpholinomethyl)cyclopropyl]methoxy]-1,3,5-triazin-2-yl]spiro[5,6-dihydrocyclopenta[b]thiophene-4,3′-azetidine]-3-carbonitrile] | < 10 | 100 to 1000 | 10 to 100 | 1000 to 20000 | – | – |
| N#Cc1c(N)sc2c1C1(CC2)CN(c2nc(OC[C@@]34CCCN3C[C@H](F)C4)nc(N3CCCC4(C3)NC(=O)NC4=O)n2)C1 (stereo partly drawn) [Compound 45, 2-amino-1′-[4-(2,4-dioxo-1,3,9-triazaspiro[4.5]decan-9-yl)-6-[[(2R,8S)-2-fluoro-1,2,3,5,6,7-hexahydropyrrolizin-8-yl]methoxy]-1,3,5-triazin-2-yl]spiro[5,6-dihydrocyclopenta[b]thiophene-4,3′-azetidine]-3-carbonitrile] | < 10 | 1000 to 20000 | < 10 | 100 to 1000 | – | – |
| CCN(c1nc(OC[C@@]23CCCN2C[C@H](F)C3)nc(N2CC3(C2)SCc2sc(N)c(C#N)c23)n1)[C@H](C)c1cccnc1N [Compound 139A, 2-amino-1′-[4-[[(1*)-1-(2-amino-3-pyridyl)ethyl]-ethyl-amino]-6-[[(2R,8S)-2-fluoro-1,2,3,5,6,7-hexahydropyrrolizin-8-yl]methoxy]-1,3,5-triazin-2-yl]spiro[6H-thieno[3,4-b]thiophene-4,3′-azetidine]-3-carbonitrile] | < 10 | < 10 | < 10 | < 10 | – | – |
| C[C@@]1(O)CCCN(c2nc(OCC3(CN4CCOCC4)CC3)nc(N3CC4(C3)c3c(sc(N)c3C#N)C[C@H]4F)n2)C1 [Compound 70, (5R)-2-amino-5-fluoro-1′-[4-[(3R)-3-hydroxy-3-methyl-1-piperidyl]-6-[[1-(morpholinomethyl)cyclopropyl]methoxy]-1,3,5-triazin-2-yl]spiro[5,6-dihydrocyclopenta[b]thiophene-4,3′-azetidine]-3-carbonitrile] | < 10 | 100 to 1000 | < 10 | 100 to 1000 | – | – |
| CCN(c1nc(OC[C@@]23CCCN2C[C@H](F)C3)nc(N2CC3(C2)SCc2sc(N)c(C#N)c23)n1)[C@@H](C)c1cccnc1N [Compound 139B, 2-amino-1′-[4-[[(1*)-1-(2-amino-3-pyridyl)ethyl]-ethyl-amino]-6-[[(2R,8S)-2-fluoro-1,2,3,5,6,7-hexahydropyrrolizin-8-yl]methoxy]-1,3,5-triazin-2-yl]spiro[6H-thieno[3,4-b]thiophene-4,3′-azetidine]-3-carbonitrile] | < 10 | 10 to 100 | < 10 | 10 to 100 | – | – |
| CCN(c1nc(OCC2(COC)CCCN2)nc(N2CC3(C2)SCc2sc(N)c(C#N)c23)n1)[C@H](C)c1cccnc1N (stereo partly drawn) [Compound 202, 2-amino-1′-[4-[[(1R)-1-(2-amino-3-pyridyl)ethyl]-ethyl-amino]-6-[[2-(methoxymethyl)pyrrolidin-2-yl]methoxy]-1,3,5-triazin-2-yl]spiro[6H-thieno[3,4-b]thiophene-4,3′-azetidine]-3-carbonitrile] | < 10 | 10 to 100 | < 10 | 10 to 100 | – | – |
